Source: patent publication US20260248763A1 (BIO GENUINE (SHANGHAI) BIOTECH CO., LTD, priority 2023, published 2026)

Tests used:
OTR = target: T1, OTR (Homo sapiens, UniProt P30559); assay: Ca2+ mobilization in cells stably expressing OTR (FLIPR, antagonist mode); assay type: cell-based; settings: OTR/HEK293 stably transfected cell line
T1 construct: expressed in transfected cells; host or cells: OTR/HEK293 stably transfected cell line
T1 sequence (P30559 1-389): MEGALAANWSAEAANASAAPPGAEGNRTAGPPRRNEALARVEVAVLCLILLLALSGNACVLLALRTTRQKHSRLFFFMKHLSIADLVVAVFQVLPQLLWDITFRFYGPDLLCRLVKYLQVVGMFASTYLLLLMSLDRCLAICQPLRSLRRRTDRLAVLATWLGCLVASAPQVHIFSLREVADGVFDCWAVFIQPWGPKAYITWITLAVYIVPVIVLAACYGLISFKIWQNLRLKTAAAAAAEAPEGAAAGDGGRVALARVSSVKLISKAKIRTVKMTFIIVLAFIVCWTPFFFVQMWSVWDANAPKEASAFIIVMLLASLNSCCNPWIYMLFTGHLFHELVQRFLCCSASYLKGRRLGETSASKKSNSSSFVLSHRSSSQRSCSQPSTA
In short: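 Antagonist mode: test compounds in 10-point 3-fold series were added on FLIPR to Fluo-4-loaded HEK293 cells stably expressing OTR, followed by reference agonist at its EC80, determined beforehand. The Max-Min calcium fluorescence response was fitted in Prism.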

V1aR = target: T2, V1aR (Homo sapiens, UniProt P37288); assay: Ca2+ mobilization in cells stably expressing V1aR (FLIPR, antagonist mode); assay type: cell-based; settings: V1a-CHO stably transfected cell line
T2 construct: expressed in transfected cells; host or cells: V1a-CHO stably transfected cell line
Text: Test Example 2. Determination of the Effect of the Compound of the Present Disclosure on Ca^2+ Mobilization in Cells Stably Expressing V1aR
To measure the antagonistic effect of the compound of the present disclosure on V1aR activity expressed in the V1a-CHO stably transfected cell line.
• F-12 (Hyclone, SH30026.01) • FLIPR CALCIUM 6 ASSAY KIT (Molecul Device, R8191) • Fetal Bovine Serum (FBS) (AusGeneX, FBS500-S) • Hygromycin B (Solarbio, H8080-1g) • DMSO (Sigma, D4540) • HBSS (Gibco 14025-092) • Probenecid (MCE, HY—B0545) • 0.36 mL 96 Round V-bottom Deep Well Plates for Laboratory (Biaosen P-0.36-BSA-96) • 384-well conical bottom polypropylene plate (Nunc, 264573) • Corning® 384-well Flat Clear Bottom Black Polystyrene TC-treated Microplates (Corning 3764)
• Biological safety cabinet (ECSO, AC2-6S1-TC) • Carbon dioxide cell incubator (ECSO, CCI-170B-8) • Inverted microscope (Olympus, CKX53) • Microplate low-speed centrifuge (Xiangzhi, TD5B) • FLIPR® Penta (Molecul Device, 5.0)
• 1. Cell plating: V1a-CHO cells were digested and harvested, resuspended and counted, and then inoculated into a 384-well cell plate at a density of: 1.2×10^4 cells/25 μL/well. The cell plate was then incubated in an incubator at 37° C. with 5% CO2 for about 16-20 h. • 2. The next day: after preparing Assay Buffer, 20× Component A was thawed to room temperature, diluted with Assay buffer to 1× loading buffer, and placed at room temperature for later use. • 3. The medium was removed from the cell plate, and 40 μL of 1× loading buffer was quickly added to each well. After centrifugation, the cell plate was incubated at 37° C. in the dark for 120 minutes. • 4. The serially diluted positive compound, serially diluted test compound, and agonist working solution were formulated. After mixing the serially diluted positive compound/serially diluted test compound with the agonist at a 1:1 ratio, 20 μL per well was transferred to a 384-well compound source plate. • 5. The cell plate, agonist source plate, and pipette tips were placed into their respective positions in the FLIPR instrument. Using FLIPR Tetra, 10 μL of the diluted agonist from Step 4 was added to each test well, and the data were collected at a wavelength of 515 nm-575 nm. • 6. The signal values were plotted against the compound concentrations, and the curve fitting and IC50 calculation were performed using the nonlinear regression method of GraphPad Prism software.

T2 sequence (P37288 whole entry, species assumed): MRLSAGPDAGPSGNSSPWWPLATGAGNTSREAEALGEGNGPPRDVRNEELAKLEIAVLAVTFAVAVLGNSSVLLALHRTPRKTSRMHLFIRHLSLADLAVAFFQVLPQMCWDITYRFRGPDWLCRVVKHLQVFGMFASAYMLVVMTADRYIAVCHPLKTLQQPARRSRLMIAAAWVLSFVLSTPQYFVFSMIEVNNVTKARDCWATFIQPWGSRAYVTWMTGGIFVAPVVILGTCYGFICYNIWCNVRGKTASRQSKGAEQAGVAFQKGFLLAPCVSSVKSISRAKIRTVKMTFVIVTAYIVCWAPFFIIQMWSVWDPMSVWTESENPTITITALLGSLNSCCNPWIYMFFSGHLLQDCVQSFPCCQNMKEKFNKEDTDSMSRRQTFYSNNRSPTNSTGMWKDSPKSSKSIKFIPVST

CO/N=C1/C[C@@H](CO)N(C(=O)c2ccc(-c3cccc(OC)c3C)cc2)C1 [Example C0066, (S, Z)-(2-(Hydroxymethyl)-4-(methoxyimino)pyrrolidin-1-yl)(3′-methoxy-2′-methyl-[1,1′-biphenyl]-4-yl)methanone]
IC50 (OTR): 72.9 nM | IC50 (V1aR): 2160 nM

CO/N=C1/C[C@@H](CO)N(C(=O)c2ccc(-c3cccc(C#N)c3C)c(F)c2)C1 [Example C0158, (S,Z)-2′-Fluoro-4′-(2-(hydroxymethyl)-4-(methoxyimino)pyrrolidine-1-carbonyl)-2-methyl-[1,1′-biphenyl]-3-carbonitrile]
IC50 (OTR): 17.2 nM | IC50 (V1aR): 520 nM

COCCOc1cc(C(=O)N2C/C(=N\OC)C[C@H]2CO)ccc1-c1cccc(C#N)c1C [Example A0191, (S, Z)-4′-(2-(Hydroxymethyl)-4-(methoxyimino)pyrrolidine-1-carbonyl)-2′-(2-methoxyethoxy)-2-methyl-[1, 1′-biphenyl]-3-carbonitrile]
IC50 (OTR): 16.8 nM | IC50 (V1aR): 1020 nM

CO/N=C1/C[C@@H](CO)N(C(=O)c2ccc(-c3cccc(C)c3C)cc2C)C1 [Example C0045, (S, Z)-(2-(Hydroxymethyl)-4-(methoxyimino)pyrrolidin-1-yl)(3-methyl-2′,3′-dimethyl-[1,1′-biphenyl]-4-yl)methanone]
IC50 (OTR): 16 nM | IC50 (V1aR): 3500 nM

CO/N=C1/C[C@@H](CO)N(C(=O)c2ccc(-c3cccc(C)c3C)cc2OC)C1 [Example C0038, (S,Z)-(2-(Hydroxymethyl)-4-(methoxyimino)pyrrolidin-1-yl)(3-methoxy-2′,3′-dimethyl-[1,1′-biphenyl]-4-yl)methanone]
IC50 (OTR): 13.5 nM | IC50 (V1aR): 1370 nM

CO/N=C1/C[C@@H](CO)N(C(=O)c2ccc(-c3ccc(F)c(C#N)c3C)c3c2OCO3)C1 [Example C0123, (S, Z)-6-Fluoro-3-(7-(2-(hydroxymethyl)-4-(methoxyimino)pyrrolidine-1-carbonyl)benzo[d][1,3]dioxolan-4-yl)-2-methylbenzonitrile]
IC50 (OTR): 16.1 nM | IC50 (V1aR): 9060 nM

CO/N=C1/C[C@@H](CO)N(C(=O)c2cc(F)c(-c3cccc(C#N)c3C)c3c2OCO3)C1 [Example C0162, 3-(5-Fluoro-7-((S,Z)-2-(hydroxymethyl)-4-(methoxyimino)pyrrolidine-1-carbonyl)benzo[d][1,3]dioxol-4-yl)-2-methylbenzonitrile]
IC50 (OTR): 8.35 nM | IC50 (V1aR): 747 nM

CO/N=C1/C[C@@H](CO)N(C(=O)c2ccc(-c3cccc(C)c3C)c(C(=O)NC3COC3)c2)C1 [Example A0157, (S, Z)-4-(2-(Hydroxymethyl)-4-(methoxyimino)pyrrolidine-1-carbonyl)-2′, 3′-dimethyl-N-(oxetan-3-yl)-[1,1′-biphenyl]-2-carboxamide]
IC50 (OTR): 119 nM | IC50 (V1aR): 6740 nM

CO/N=C1\C[C@@H](CO)N(C(=O)c2ccc(-c3cccc(C)c3C)cc2)C1 [Example C0035, (S,E)-(2′,3′-Dimethyl-[1,1′-biphenyl]-4-yl)(2-(hydroxymethyl)-4-(methoxyimino)pyrrolidin-1-yl)methanone]
IC50 (OTR): 81.2 nM | IC50 (V1aR): 661 nM

CO/N=C1\C[C@@H]([C@@H](C)O)N(C(=O)c2ccc(-c3cccc(C#N)c3C)cc2)C1 (single isomer, unassigned) [Example C0113]
IC50 (OTR): 55.3 nM | IC50 (V1aR): 1560 nM

CO/N=C1/C[C@@H](CO)N(C(=O)c2ccc(-c3cccc(C)c3C)c(OC)c2)C1 [Example C0064, (S, Z)-(2-(Hydroxymethyl)-4-(methoxyimino)pyrrolidin-1-yl)(2-methoxy-2′,3′-dimethyl-[1,1′-biphenyl]-4-yl)methanone]
IC50 (OTR): 11 nM | IC50 (V1aR): 584 nM

CO/N=C1/C[C@@H](CO)N(C(=O)c2ccc(-c3cccc(C(F)F)c3C)cc2)C1 [Example C0079, (S, Z)-(3′-(Difluoromethyl)-2′-methyl-[1,1′-biphenyl]-4-yl)(2-(hydroxymethyl)-4-(methoxyimino)pyrrolidin-1-yl)methanone]
IC50 (OTR): 27.7 nM | IC50 (V1aR): 930 nM

CO/N=C1/C[C@@H](CO)N(C(=O)c2ccc(-c3cccc(C)c3C)c(OCCO)c2)C1 [Example A0148, (S, Z)-(2-(2-Hydroxyethoxy)-2′,3′-dimethyl-[1,1′-biphenyl]-4-yl)(2-(hydroxymethyl)-4-(methoxyimino)pyrrolidin-1-yl)methanone]
IC50 (OTR): 34.4 nM | IC50 (V1aR): 732 nM

CO/N=C1/C[C@@H](CO)N(C(=O)c2ccc(-c3cccc(C#N)c3C)c(Cl)c2)C1 [Example A0246, 3-(2-Chloro-4-[(2S,4Z)-2-(hydroxymethyl)-4-(methoxyimino)pyrrolidine-1-carbonyl]phenyl)-2-methylbenzonitrile]
IC50 (OTR): 24.1 nM | IC50 (V1aR): 1850 nM

CO/N=C1/C[C@@H](CO)N(C(=O)c2cc(F)c(-c3cccc(C#N)c3C)c3c2OCCO3)C1 [Example C0160, 3-(6-Fluoro-8-((S,Z)-2-(hydroxymethyl)-4-(methoxyimino)pyrrolidine-1-carbonyl)-2,3-dihydrobenzo[b][1,4]dioxin-5-yl)-2-methylbenzonitrile]
IC50 (OTR): 21.9 nM | IC50 (V1aR): 529 nM

CO/N=C1/C[C@@H](CO)N(C(=O)c2ccc(-c3cccc(C#N)c3C)cc2C)C1 [Example A0241, 3-(4-[(2S,4Z)-2-(Hydroxymethyl)-4-(methoxyimino)pyrrolidine-1-carbonyl]-3-methylphenyl)-2-methylbenzonitrile]
IC50 (OTR): 20.3 nM | IC50 (V1aR): 6130 nM

CO/N=C1/C[C@@H](CO)N(C(=O)c2ccc(-c3cccc(C)c3C)c(C(F)F)c2)C1 [Example A0134, (S,Z)-(2-(Difluoromethyl)-2′, 3′-dimethyl-[1,1′-biphenyl]-4-yl)(2-(hydroxymethyl)-4-(methoxyimino)pyrrolidin-1-yl)methanone]
IC50 (OTR): 13.1 nM | IC50 (V1aR): 5820 nM

CO/N=C1/C[C@@H](CO)N(C(=O)c2cnc(-c3cccc(C)c3C)cn2)C1 [Example A0061, (S, Z)-(5-(2,3-Dimethylphenyl)pyrazin-2-yl)(2-(hydroxymethyl)-4-(methoxyimino)pyrrolidin-1-yl)methanone]
IC50 (OTR): 99.8 nM | IC50 (V1aR): 2390 nM

CO/N=C1/C[C@@H](CO)N(C(=O)c2ccc(-c3cccc(C#N)c3C)c3c2cnn3C)C1 [Example A0167, 3-(4-[(2S,4Z)-2-(Hydroxymethyl)-4-(methoxyimino)pyrrolidine-1-carbonyl]-1-methyl-1H-indazol-7-yl)-2-methylbenzonitrile]
IC50 (OTR): 49.8 nM | IC50 (V1aR): 1480 nM

CO/N=C1/C[C@@H](CO)N(C(=O)c2ccc(-c3cccc(C#N)c3C)c3c2OCCO3)C1 [Example C0133, (S,Z)-3-(8-(2-(Hydroxymethyl)-4-(methoxyimino)pyrrolidine-1-carbonyl)-2,3-dihydrobenzo[b][1,4]dioxin-5-yl)-2-methylbenzonitrile]
IC50 (OTR): 8.19 nM | IC50 (V1aR): 2350 nM

CO/N=C1/C[C@@H](CO)N(C(=O)c2ccc(-c3cccc(C#N)c3C)c(OC)c2)C1 [Example A0242, (S,Z)-4′-(2-(Hydroxymethyl)-4-(methoxyimino)pyrrolidine-1-carbonyl)-2′-methoxy-2-methyl-[1,1′-biphenyl]-3-carbonitrile]
IC50 (OTR): 10.8 nM | IC50 (V1aR): 1550 nM

CO/N=C1/C[C@@H](CO)N(C(=O)c2ccc(-c3cccc(C)c3C)cc2)C1 [Example C0036, (S,Z)-(2′,3′-Dimethyl-[1,1′-biphenyl]-4-yl)(2-(hydroxymethyl)-4-(methoxyimino)pyrrolidin-1-yl)methanone]
IC50 (OTR): 32.1 nM | IC50 (V1aR): 790 nM
